One assay concerns BDNF. Kind of assay: Western blot of BDNF in brain regions, chronic cocaine ± 5-MeO-DMT. It counts as in vivo, Male Wistar rats. The note with it: for BDNF expression: 24 h; for BDNF levels: 120 h. From the text: (§1) Male Wistar rats aged 7 weeks were acclimatized to the facility for 1 week prior to the beginning of the study. […] Animals were euthanized 23- or 119-hours following vehicle or 5-MeO-DMT administration.
(§2) Following euthanasia brain regions of interest were isolated. Briefly, the olfactory bulbs were removed before the brain was placed in a rat brain matrix (FIG. 2A). Sterile blades were inserted at positions 2 and 3 (FIG. 2B) to extract a coronal slice containing the Bregma+˜0.2-+˜2.2 coordinates (FIG. 2C). From this tissue slice a blunted 12 G needle was used to punch dissect the NAc and dorsal striatum (DS) (FIG. 2D-2E) identified using the rat brain atlas (Panxinos and Watson 2nd edition). The PFC, hippocampus (Hip) and amygdala (Amyg) were then blunt dissected (FIG. 3A-3D). All regions were frozen in liquid nitrogen and stored at −80° C. until processed.
(§3) These treatment groups were used for the molecular assessment of addiction-linked markers.
(§4) Determination of protein concentration—a bicinchoninic acid assay (BCA, ThermoFisher) was conducted to determine the total protein concentration in tissue lysates following manufacturer's instructions. Briefly, bovine serum albumin (BSA) standards were prepared in a serial dilution (0-2.0 mg protein/ml) and 200 μl working reagent (50:1, reagent A: reagent B) was added to each of the standards and samples in a 96 well plate (Greiner). For tissue lysates a 1:10 dilution was performed with cell lysis buffer to ensure absorbance values lay within the working range established by the standards. All samples and standards were added in duplicate. The plate was covered and incubated for 30 mins at 37° C. before absorbance was read at 562 nm on a plate reader (SpectraMax M3). The absorbance values were used to form a standard curve of known protein concentrations and protein concentration of samples were derived using the equation of the line. All samples were standardized to the lowest protein concentration using distilled H20 (dH2O).
(§5) SDS-PAGE and Western Blotting—Following equalisation of protein concentrations, 6× sample loading buffer (15% SDS, 15% […], 50% glycerol, 0.01% bromophenol blue, […]) was added to each sample using a dilution factor of 1:5 of the total volumes before boiling at 100° C. for 5 mins. Samples were stored at −20° C. until use. One dimensional sodium-dodecyl-sulphate polyacrylamide gel electrophoresis (SDS-PAGE) was used for protein separation based on molecular weight. The percentage of acrylamide in the resolving or stacking gel was determined by the molecular weight of the protein of interest. In this instance all gels consisted of a 5% stacking gel and a 10% resolving gel with the exception of mGluR5, G9a (8%) and H3K9Me2 (12%). 20 μg of protein was loaded and resolved using SDS-PAGE. Gel electrophoresis was conducted at 80V while the protein was in the stacking gel, once it migrated to the resolving gel the voltage was increased to 120V and ran for 90 mins. Samples were transferred to a 0.45 μm polyvinylidene difluoride (PVDF) membrane (Analab) for 1 hour at 100V and blocked in 5% milk blocking solution made in tris-buffered saline containing tween®-20 (TBS-T, Sigma) for 90 mins. Primary antibodies (FIG. 5) were diluted in 5% BSA in TBS-T and incubated with membranes overnight at 4° C. or for 2 hours at room temperature. After incubation with primary antibodies the membranes were washed in TBS-T for 4×10 minutes before incubation with 1:2000 anti-rabbit and 1:2000 anti-mouse Alexa Fluro® conjugated secondary antibodies (Invitrogen) in 2% milk for 1 hour at room temperature. Membranes were washed in TBS-T for 4×10 minutes and in TBS for 1×10-minute wash. Proteins were visualized using Odyssey® infrared imaging system. Protein expression was quantified using Image Studio Lite (Version 5.2) and expression intensities were normalized to a house keeping protein, α-Tubulin or β-actin.
(In general: A western blot detects proteins with antibodies after separation by electrophoresis.)

Another assay relates to ΔFosB. Kind of assay: Western blot of ΔFosB in brain regions, chronic cocaine ± 5-MeO-DMT. It counts as in vivo, Male Wistar rats.
Description: as §1, §2, §3, §4, §5

The conditions of assay [1]: humans, following insufflation; cited from earlier work.
Assay [2] deals with top 10 cocaine-dysregulated biological pathways in the hippocampus. The assay can be described thus: Biological pathway analysis (IPA) of transcriptomics, cocaine-dysregulated pathways. It counts as in vivo, Male Wister rats. The note with it: single treatment. On the procedure:
Animals were then randomly allocated to one of five groups and received a single i.p. injection of one of vehicle, 5 mg/kg 5-Meo-DMT, 0.14 mg/kg LSD, 1 mg/kg psilocybin, or 1 mg/kg DOI. On day 15, animals were euthanised and the hippocampus blunt dissected, snap frozen in liquid nitrogen and stored at −80° C. until further processing.
Subsequent pathway analyses were done using Ingenuity Pathway Analysis (IPA). Analysis settings for IPA included the Ingenuity Knowledge Base (Genes Only), direct and indirect relationships, and endogenous chemicals of the previously filtered list of differentially expressed genes. IPA was filtered to only consider molecules where the species were human, rat, or mouse and the confidence can be experimentally observed. Canonical pathways were utilized in pathway analysis, where the spreadsheet organized the values of significance to −log(p-value) and the rate of regulation to the z-score. Negative z-score values indicate downregulation and positive values indicate upregulation.

Assay [3] deals with G9a. Kind of assay: Western blot of G9a in brain regions, chronic cocaine ± 5-MeO-DMT. It counts as in vivo, Male Wistar rats.
Description: as §1, §2, §3, §4, §5

The target in the next assay is 5-HT1AR. The note with it: canonical signaling activity measured; read-out: affinity (Ki) for the 5-HT1AR subtype; cited from earlier work.
The test system of assay [4] is G9a. Particulars: repeated cocaine; cited from earlier work.

SMILES strings stand for the structures.

As to `COc1ccc2[nH]cc(CCN(C)C)c2c1` [5-MeO-DMT, 5-methoxy-N,N-dimethyltryptamine], the BDNF expression entry with BDNF (PFC, cocaine+10 mg/kg 5-MeO-DMT relative to saline+vehicle) is given as “significant decrease in BDNF expression”; in the assay on BDNF (PFC, cocaine+20 mg/kg 5-MeO-DMT relative to saline+vehicle) it was “significant decrease in BDNF expression”; with BDNF (hippocampus, any of the treatment groups), “no change in BDNF expression”. In addition, the BDNF levels result with BDNF (hippocampus, 10 mg/kg 5-MeO-DMT alone) is listed as “no effect alone”; in the assay with BDNF (hippocampus, 20 mg/kg 5-MeO-DMT alone), “significant decrease in BDNF levels”; in the assay on BDNF (hippocampus, cocaine+10 mg/kg 5-MeO-DMT), “does not affect the cocaine-induced decrease in expression levels”; in the assay on BDNF (hippocampus, cocaine+20 mg/kg 5-MeO-DMT), “restores BDNF levels to those seen in the control group”. Further, the ΔFosB expression entry in the assay on ΔFosB (PFC, 24 h, cocaine alone or 5-MeO-DMT alone) is “Neither treatment changes expression alone”; in the assay on ΔFosB (PFC, 24 h, cocaine+10 mg/kg 5-MeO-DMT), “increases expression relative to 10 mg/kg 5-MeO-DMT alone”; in the assay with ΔFosB (PFC, 24 h, cocaine+20 mg/kg 5-MeO-DMT (increase seen with 10 mg/kg)) it was “not replicated”; in the assay with ΔFosB (amygdala, 24 h, 5-MeO-DMT alone) it was “no effect”; in the assay with ΔFosB (amygdala, 24 h, cocaine+20 mg/kg 5-MeO-DMT) it was “normalized levels in the cocaine treated animals comparable to the control group”; in the assay on ΔFosB (amygdala, 120 h, 20 mg/kg 5-MeO-DMT relative to control), “dose-dependent increase”. Besides, the ΔFosB expression entry in the assay on ΔFosB (dorsal striatum, 24 h, 5-MeO-DMT alone) was “does not regulate the expression”; with ΔFosB (dorsal striatum, 24 h, cocaine+10 mg/kg 5-MeO-DMT relative to control), “significant increase in ΔFosB expression”; in the assay on ΔFosB (dorsal striatum, 24 h, cocaine+20 mg/kg 5-MeO-DMT), “returns the cocaine-induced increase in ΔFosB to levels comparable with control”; in the assay with ΔFosB (dorsal striatum, 120 h, irrespective of the treatment group), “no change in expression levels”; in the assay on ΔFosB (nucleus accumbens, 24 h, cocaine+20 mg/kg 5-MeO-DMT) it was “expression levels remain elevated in the combo group relative to control”; in the assay with ΔFosB (nucleus accumbens, 24 h, saline+10 mg/kg 5-MeO-DMT) it was “increased”. Also, the ΔFosB expression result in the assay on ΔFosB (nucleus accumbens, 24 h, saline+20 mg/kg 5-MeO-DMT) is listed as “increased”; in the assay on ΔFosB (nucleus accumbens, 120 h, 5-MeO-DMT alone) it was “does not persist to 120 hours”. For the same molecule, the end of effects in assay [1] was 60 to 70 min. In addition, in assay [1], the peak of effects is 35 to 40 min. The start of effects in assay [1] was 3 to 4 min. Further, the “number of the top 10 dysregulated pathways corrected” value in assay [2] was 9 pathways. In assay [2], the “top 10 cocaine-dysregulated biological pathways corrected” value is given as 90%. Moreover, the G9a expression result is “significant decrease in G9a expression” in the assay with G9a [3] (PFC, 24 h, cocaine+20 mg/kg 5-MeO-DMT relative to saline+vehicle); “increased G9a expression levels” with G9a [3] (dorsal striatum, 24 h, 20 mg/kg 5-MeO-DMT alone); “significantly reduced G9a levels relative to the cocaine+vehicle group” in the assay with G9a [3] (dorsal striatum, 24 h, cocaine + either concentration of 5-MeO-DMT (10 or 20 mg/kg)); “remained significantly elevated” in the assay with G9a [3] (dorsal striatum, 120 h, 20 mg/kg 5-MeO-DMT alone); “no change in enzyme expression” in the assay with G9a [3] (hippocampus, 5-MeO-DMT alone); “normalised the cocaine-induced decrease in G9a” in the assay with G9a [3] (hippocampus, 24 h, cocaine+20 mg/kg 5-MeO-DMT). The Ki on 5-HT1AR is below 10 nM.

In the case of `COC(=O)[C@H]1[C@@H](OC(=O)c2ccccc2)C[C@@H]2CC[C@H]1N2C.Cl` [cocaine, cocaine hydrochloride, reference compound], in the assay with G9a [4], the “reduction in G9a expression” value is 19%.

Usually Ki stands for a measure of affinity in units of concentration, obtained from inhibition or displacement.

Source of the values: patent US20240299353A1, “COMPOSITIONS AND METHODS FOR TREATING […] 5-MEO-DMT” (Alvarius Pharmaceuticals Ltd., priority 2021, published 2024).
